Source: patent US20250368639A1, “SOLID FORMS OF A COMPOUND FOR TREATING OR PREVENTING HYPERURICEMIA OR GOUT” (ATOM THERAPEUTICS CO., LTD, priority 2022, published 2025)

Columns and labels:
URAT1 = molecular target: T1, URAT1 (Homo sapiens, UniProt Q96S37); test: Inhibitory effect on URAT1; settings: in comparison with other treatments
T1 sequence (Q96S37 1-553): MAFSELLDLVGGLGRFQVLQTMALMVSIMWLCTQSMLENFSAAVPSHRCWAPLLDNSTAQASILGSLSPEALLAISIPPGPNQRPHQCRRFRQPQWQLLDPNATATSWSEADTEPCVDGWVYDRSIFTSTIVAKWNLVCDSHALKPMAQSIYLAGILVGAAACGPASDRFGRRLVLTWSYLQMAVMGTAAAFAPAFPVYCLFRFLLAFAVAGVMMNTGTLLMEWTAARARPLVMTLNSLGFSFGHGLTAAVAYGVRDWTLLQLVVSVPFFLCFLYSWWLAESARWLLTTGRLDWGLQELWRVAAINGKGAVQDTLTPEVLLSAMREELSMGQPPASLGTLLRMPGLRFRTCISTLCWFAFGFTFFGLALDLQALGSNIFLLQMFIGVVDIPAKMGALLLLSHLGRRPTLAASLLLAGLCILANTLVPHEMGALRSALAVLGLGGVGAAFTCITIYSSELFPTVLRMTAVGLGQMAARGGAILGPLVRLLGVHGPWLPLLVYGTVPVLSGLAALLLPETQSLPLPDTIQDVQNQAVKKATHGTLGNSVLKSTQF

normal liver cells = test: Toxicity to normal liver cells; format: cell-based; settings: in comparison with other treatments
[1] = rat, in vivo
[2] = Uric acid excretion in mice; format: in vivo; settings: in comparison with other treatments

CCc1nc2ccccn2c1C(=O)c1cc(Br)c(O)c(C#N)c1 [Compound I, 3-bromo-5-[(2-ethylimidazo[1,2-a]pyridin-3-yl)carbonyl]-2-hydroxybenzonitrile]
Inhibitory effect on URAT1 (URAT1): significantly improve the inhibitory effect on URAT1 | Toxicity to normal liver cells (normal liver cells): reduce the toxicity to normal liver cells | Toxicity (oral maximum tolerated dose, acute toxicity test) [1]: much lower than other treatments | Uric acid excretion [2]: significantly increase uric acid excretion in mice
